Tests used:
[1] = system: HeLa; assay: Cytotoxicity against human HeLa cells […] by SRB assay; format: functional, cell-based
[2] = system: HT-29; assay: Cytotoxicity against human HT-29 cells […] by SRB assay; format: functional, cell-based
[3] = system: MRC5; assay: Cytotoxicity against human MRC5 cells […] by SRB assay; format: cell-based
[4] = system: PC-3; assay: Cytotoxicity against AR-negative human PC3 cells after 48 hr by SRB assay; conditions: PC-3, 48 h
[5] = system: MCF7; assay: Cytotoxicity against ER-positive human MCF7 cells after 48 hr by SRB assay; conditions: MCF7, 48 h
[6] = system: MDA-MB-231; assay: Cytotoxicity against ER-negative human MDA-MB-231 cells after 48 hr by SRB assay; conditions: for IC50: MDA-MB-231, 48 h
[7] = system: MDA-MB-231; assay: Ratio of 17alpha-picolyl-androst-5-en 3beta, 17beta-diol IC50 to compound IC50 cytotoxicity against ER-negative human MDA-MB-231 cells after 48 hr by SRB assay
[8] = system: MDA-MB-231; assay: Cytotoxicity against ER-negative human MDA-MB-231 cells at <1 uM after 48 hr by SRB assay

| Compound | IC50 [1] | IC50 [2] | IC50 [3] | IC50 [4] | IC50 [5] | Activity [6] | IC50 [6] | Ratio IC50 [7] | Activity [8] |
| --- | --- | --- | --- | --- | --- | --- | --- | --- | --- |
| C[C@]12CC[C@H](O)C=C1CC[C@@H]1[C@@H]2CC[C@@]2(C)[C@H]1CC[C@@]2(O)Cc1ccccn1 | 26.9 µM | > 100 µM | > 100 µM | 22.3 µM | > 100 µM | Dose-dependent effect | 3.8 µM | – | – |
| C[C@]12CC[C@H](O)[C@@H](O)C1=CC[C@@H]1[C@@H]2CC[C@@]2(C)[C@H]1CC[C@@]2(O)Cc1ccccn1 | 21.3 µM | 2.6 µM | > 100 µM | 21.3 µM | > 100 µM | Dose-dependent effect | 5.6 µM | 17 | – |
| C[C@]12CCC=CC1=CC[C@@H]1[C@@H]2CC[C@@]2(C)[C@H]1CC[C@@]2(O)Cc1ccccn1 | 27.5 µM | 11.7 µM | > 100 µM | 24.7 µM | 17.4 µM | Dose-dependent effect | 2.3 µM | – | – |
| C[C@]12CC[C@H]3[C@@H](C[C@@H]4O[C@@]45C[C@@H](O)CC[C@]35C)[C@@H]1CC[C@@]2(O)Cc1cccc[n+]1[O-] | 33.5 µM | 25.8 µM | > 100 µM | 33.6 µM | > 100 µM | Dose-dependent effect | 7.5 µM | – | – |
| C[C@]12CCC(=O)C(O)=C1CC[C@@H]1[C@@H]2CC[C@]2(C)C(=O)CC[C@@H]12 [FORMESTANE] | 5.55 µM | > 100 µM | > 100 µM | 48.4 µM | > 100 µM | Dose-dependent effect | 55.5 µM | – | – |
| C[C@]12CC[C@H](O)C=C1CC[C@@H]1[C@@H]2CC[C@]2(C)/C(=C/c3ccccn3)CC[C@@H]12 | – | – | > 100 µM | 10.1 µM | > 100 µM | Dose-dependent effect | > 100 µM | – | – |
| C[C@]12CCC(=O)C=C1C(=O)C[C@@H]1[C@@H]2CC[C@@]2(C)[C@H]1CC[C@@]2(O)Cc1ccccn1 | > 100 µM | > 100 µM | > 100 µM | 4.3 µM | > 100 µM | Dose-dependent effect | > 100 µM | – | – |
| COC1=C2CC[C@@H]3[C@H](CC[C@]4(C)/C(=C/c5ccccn5)CC[C@@H]34)[C@@]2(C)CCC1=O | 15.3 µM | 56 µM | > 100 µM | 34.1 µM | > 100 µM | Dose-dependent effect | 4.1 µM | – | 10% |
| COc1cccc2c1C(=O)c1c(O)c3c(c(O)c1C2=O)C[C@@](O)(C(=O)CO)C[C@@H]3O[C@H]1C[C@H](N)[C@H](O)[C@H](C)O1 [DOXORUBICIN] | 1.17 µM | 0.32 µM | 0.12 µM | 95.6 µM | 0.75 µM | Dose-dependent effect | 0.12 µM | – | – |
| CC(=O)O[C@@H]1C=C2CC[C@@H]3[C@H](CC[C@@]4(C)[C@H]3CC[C@@]4(O)Cc3ccccn3)[C@@]2(C)CC1 | > 100 µM | 10.6 µM | > 100 µM | 31.3 µM | > 100 µM | Dose-dependent effect | 10.2 µM | – | – |
| C[C@]12CC[C@H](O)CC1=CC[C@@H]1[C@@H]2CC[C@@]2(C)[C@H]1CC[C@@]2(O)Cc1ccccn1 | – | – | > 100 µM | 6.3 µM | > 100 µM | Dose-dependent effect | 96.1 µM | – | – |
| C[C@]12CCC(=O)C(O)=C1C=C[C@@H]1[C@@H]2CC[C@@]2(C)[C@H]1CC[C@@]2(O)Cc1ccccn1 | 36.6 µM | > 100 µM | > 100 µM | 25.6 µM | 3.6 µM | Dose-dependent effect | 1.2 µM | – | – |
| C[C@]12CC[C@H](O)[C@H](O)C1=CC[C@@H]1[C@@H]2CC[C@@]2(C)[C@H]1CC[C@@]2(O)Cc1ccccn1 | 26.6 µM | 8 µM | > 100 µM | 52.1 µM | > 100 µM | Dose-dependent effect | 9 µM | 10 | – |
| C[C@]12CCC=CC1=CC[C@@H]1[C@@H]2CC[C@]2(C)/C(=C/c3ccccn3)CC[C@@H]12 | 23.3 µM | 1.8 µM | > 100 µM | 19.9 µM | 55.8 µM | Dose-dependent effect | 4.6 µM | – | – |
| COC1=C2CC[C@@H]3[C@H](CC[C@@]4(C)[C@H]3CC[C@@]4(O)Cc3ccccn3)[C@@]2(C)CCC1=O | 19.1 µM | > 100 µM | > 100 µM | 54.8 µM | > 100 µM | Dose-dependent effect | 42.6 µM | – | – |
| C[C@]12CCC(=O)C(O)=C1C=C[C@@H]1[C@@H]2CC[C@]2(C)/C(=C/c3ccccn3)CC[C@@H]12 | – | – | > 100 µM | > 100 µM | > 100 µM | Dose-dependent effect | 9.3 µM | – | – |

Reference: ChEMBL document CHEMBL2040837, “Synthesis and cytotoxic activity of some 17-picolyl and 17-picolinylidene androstane derivatives” (Eur J Med Chem, 2012)
